These results are taken from patent US20060264347A1, “Antimicrobial composition” (priority 2005, published 2006).

In one series the test system is C. albican. As to the kind of experiment: In vitro antimicrobial efficacy, viable plate count after 24 hr culture. In kind it is cell-based. The following applies: 37° C. 24 hr, inoculum 10^6 CFU/ml. On the procedure: (§1) The synergistic antimicrobial efficacy of the LAE and diiodomethyl-p-tolylsulfone ([…]) antimicrobial composition is illustrated by the results shown in Tables 1 and 2, and was determined by the following protocol. […] Sequential dilutions of the above two stock solutions were then prepared in sterile saline. […] Controls contained similar amounts of saline in the test culture with no LAE or […]. The test cultures were incubated at 37° C. for 24 hr, the total viable bacteria were numerated by plate count on Trypticase® soy agar (BBL) containing inactivating agent. The plates were incubated at 37° C. for 48 hr and reported as colony forming unit/ml (CFU/ml).

The test system of series [1] is E. coli. Described as above. The series is classed as cell-based. As to conditions: 37° C. 24 hr, inoculum 10^6 CFU/ml. On the procedure:
as §1

For a further series, the system named is E. faecium. Described as above. In kind it is cell-based. As to conditions: 37° C. 24 hr, inoculum 10^6 CFU/ml. On the procedure: as §1
For another series, the system named is P. aeruginosa. Described as above. In kind it is cell-based. The following applies: 37° C. 24 hr, inoculum 10^6 CFU/ml. On the procedure: as §1
The test system of series [2] is S. aureus. The description is as above. The series is classed as cell-based. As to conditions: 37° C. 24 hr, inoculum 10^6 CFU/ml. On the procedure: as §1
For series [3], the system named is E. coli. As to the kind of experiment: Zone of inhibition assay of coated sutures. The series is classed as cell-based. The following applies: coated 2-0 polyglactin 910 suture, 37° C. 48 hr. On the procedure: (§2) A series of USP standard size 2-0 uncoated polyglactin 910 sutures were coated with coating compositions containing LAE. LAE stock solution was made in ethanol at the concentration of 10%. The coating solutions were made by dissolving a L(−)lactide/glycolide copolymer containing 65 mole % lactide and 35 mole % glycolide (4.5%) and calcium stearate (4.5%) in ethyl acetate. Then, the LAE stock solution was added to the coating solution at sequential concentrations and mixed thoroughly. The sutures were hand coated by dipping into the coating solution containing antimicrobial composition and then air dried at room temperature for 8 hr. The antimicrobial efficacy was evaluated by zone of inhibition assay, in which the sutures were cut into a 5 cm section and inoculated with about 10^5 cfu/suture in a Petri dish, a portion of 20 ml of TSA tempered at 47° C. was added into the Petri dish. The inoculum was mix thoroughly with the medium and the suture was placed in the middle of the plate. The inoculated plates were incubated at 37° C. for 48 hr and then the zone of inhibition was measured with a digital caliper.
as §2, with “DIMPTS. DIMPTS” for “LAE. LAE”, “DIMPTS” for “LAE”
(§3) A series of USP standard size 2-0 uncoated polyglactin 910 sutures were coated with coating compositions containing the combinations of LAE and DIMPTS. DIMPTS and LAE stock solutions were made in ethanol at concentration of 10%. The coating solutions were made by dissolving a L(−)lactide/glycolide copolymer containing 65 mole % lactide and 35 mole % glycolide (4.5%) and calcium stearate (4.5%) in ethyl acetate. Then, the DIMPTS and LAE stock solutions were added to the coating solution at sequential concentrations and mixed thoroughly. The sutures were hand coated by dipping into the coating solution containing antimicrobial composition and then air dried at room temperature for 8 hr. The antimicrobial efficacy and synergistic effect were evaluated by zone of inhibition assay, in which the sutures were cut into a 5 cm section and inoculated with about 10^5 cfu/suture in a Petri dish, a portion of 20 ml of TSA tempered at 47° C. was added into the Petri dish. The inoculum was mix thoroughly with the medium and the suture was placed in the middle of the plate. The inoculated plates were incubated at 37° C. for 48 hr and then the zone of inhibition was measured with a digital caliper.

For series [4], the system named is S. aureus. Nature of the series: Zone of inhibition assay of coated sutures. In kind it is cell-based. As to conditions: coated 2-0 polyglactin 910 suture, 37° C. 48 hr. On the procedure: as §2
(§4) A series of USP standard size 2-0 uncoated polyglactin 910 sutures were coated with coating compositions containing DIMPTS. DIMPTS stock solution was made in ethanol at the concentration of 10%. The coating solutions were made by dissolving a L(−)lactide/glycolide copolymer containing 65 mole % lactide and 35 mole % glycolide (4.5%) and calcium stearate (4.5%) in ethyl acetate. Then, the DIMPTS stock solution was added to the coating solution at sequential concentrations and mixed thoroughly. The sutures were hand coated by dipping into the coating solution containing antimicrobial composition and then air dried at room temperature for 8 hr. The antimicrobial efficacy was evaluated by zone of inhibition assay, in which the sutures were cut into a 5 cm section and inoculated with about 10^5 cfu/suture in a Petri dish, a portion of 20 ml of TSA tempered at 47° C. was added into the Petri dish. The inoculum was mix thoroughly with the medium and the suture was placed in the middle of the plate. The inoculated plates were incubated at 37° C. for 48 hr and then the zone of inhibition was measured with a digital caliper.
as §3

Another series relates to C. albicans. Nature of the series: Zone of inhibition assay of coated sutures. The series is classed as cell-based. The following applies: coated 2-0 polyglactin 910 suture, 37° C. 48 hr. On the procedure: as §2, §4
For series [5] the following is noted: rats; cited from earlier work.
For series [6] the following is noted: animals and humans; cited from earlier work.

On to `Cc1ccc(S(=O)(=O)C(I)I)cc1` [DIMPTS, diiodomethyl-p-tolylsulfone], for which the CFU/ml is given as 1 × 10^8 CFU/ml in the series with C. albican (0.5 ppm); 1.4 × 10^9 CFU/ml in the series on E. coli [1] (10 ppm); 1.1 × 10^5 CFU/ml in the series on E. coli [1] (200 ppm); 6 × 10^8 CFU/ml in the series on E. faecium (0.5 ppm); 3 × 10^8 CFU/ml in the series with E. faecium (5 ppm); 1.0 × 10^9 CFU/ml with P. aeruginosa (10 ppm). The CFU/ml with P. aeruginosa (200 ppm) is on record as 4 × 10^8 CFU/ml; in the series on S. aureus [2] (0.5 ppm) it was 1.2 × 10^9 CFU/ml; with S. aureus [2] (5 ppm), 2.4 × 10^6 CFU/ml. For the same compound, the “Zone of inhibition (mm)” value with E. coli [3] (0.1% in coating solution) came to 0 mm; in the series on E. coli [3] (0.5% in coating solution), 0 mm; in the series on E. coli [3] (1% in coating solution) it was 1.0 mm; in the series with S. aureus [4] (0.1% in coating solution), 0 mm; in the series with S. aureus [4] (0.5% in coating solution), 3.0 mm; in the series with S. aureus [4] (1% in coating solution) it was 4.3 mm. Moreover, the “Zone of inhibition (mm)” value in the series with C. albicans (0.1% in coating solution) came out at 3.3 mm; with C. albicans (0.5% in coating solution), 3.6 mm; with C. albicans (1% in coating solution) it was 8.4 mm.
As for `CCCCCCCCCCCC(=O)N[C@@H](CCCN=C(N)N)C(=O)OCC.Cl` [LAE, ethyl ester of the lauramide of the arginine monohydrochloride], the CFU/ml is on record as 6 × 10^7 CFU/ml with C. albican (10 ppm); 1.1 × 10^9 CFU/ml in the series with E. coli [1] (10 ppm); 5 × 10^7 CFU/ml in the series on E. faecium (10 ppm); 1.2 × 10^9 CFU/ml in the series on P. aeruginosa (10 ppm); 1.1 × 10^9 CFU/ml in the series on S. aureus [2] (10 ppm). Further, the “Zone of inhibition (mm)” value was determined as 0 mm in the series with E. coli [3] (0.5% in coating solution); 1.0 mm in the series on E. coli [3] (1% in coating solution); 2.0 mm in the series on E. coli [3] (2% in coating solution); 0 mm with S. aureus [4] (0.5% in coating solution); 1.5 mm in the series with S. aureus [4] (1% in coating solution); 3.2 mm in the series on S. aureus [4] (2% in coating solution). The “Zone of inhibition (mm)” value came to 0 mm with C. albicans (0.5% in coating solution), 2.3 mm in the series with C. albicans (1% in coating solution) and 3.5 mm in the series with C. albicans (2% in coating solution). Also, the absorption and metabolism entry in series [5] was “fast absorption and metabolism into naturally-occurring amino acids and the lauric acid”. In [6], the toxicity result is on record as “completely harmless”.
